# Experimental data reported in patent US20220023269A1, “Methods Of Treating Diabetes In Severe Insulin-Resistant Diabetic Subjects” (Balticgruppen Bio AB, priority 2018, published 2022).
# Tests used:
# [1] = molecular target: T1, PP2C-mediated dephosphorylation of p-T172 of human recombinant AMPKα, -β, and -γ trimers (Homo sapiens, UniProt P54619+P54646+Q9Y478); experiment: AMPK in vitro de-phosphorylation assay; format: biochemical
# T1 construct: purchased Life Technologies (AMPK trimer); Abcam (PP2Ca) PV4674 (Lot 1261361B); ab51205-100 (Lot GR54133-5)
# T1 sequence (P54646 whole entry): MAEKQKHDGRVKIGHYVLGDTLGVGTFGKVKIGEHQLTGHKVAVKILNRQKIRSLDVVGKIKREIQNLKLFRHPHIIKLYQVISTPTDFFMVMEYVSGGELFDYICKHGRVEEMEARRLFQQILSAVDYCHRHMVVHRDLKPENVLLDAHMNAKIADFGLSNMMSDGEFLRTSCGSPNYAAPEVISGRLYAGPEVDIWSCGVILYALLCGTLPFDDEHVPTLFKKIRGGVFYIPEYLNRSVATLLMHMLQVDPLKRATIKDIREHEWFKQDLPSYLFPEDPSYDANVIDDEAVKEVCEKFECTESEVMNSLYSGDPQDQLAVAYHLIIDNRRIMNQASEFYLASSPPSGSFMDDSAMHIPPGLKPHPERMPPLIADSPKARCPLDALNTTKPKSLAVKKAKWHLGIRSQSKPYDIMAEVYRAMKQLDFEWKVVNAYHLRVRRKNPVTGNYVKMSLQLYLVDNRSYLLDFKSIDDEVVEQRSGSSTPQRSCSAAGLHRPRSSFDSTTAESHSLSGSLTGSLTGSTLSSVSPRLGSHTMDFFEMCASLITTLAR
# T1 sequence (Q9Y478 2-270): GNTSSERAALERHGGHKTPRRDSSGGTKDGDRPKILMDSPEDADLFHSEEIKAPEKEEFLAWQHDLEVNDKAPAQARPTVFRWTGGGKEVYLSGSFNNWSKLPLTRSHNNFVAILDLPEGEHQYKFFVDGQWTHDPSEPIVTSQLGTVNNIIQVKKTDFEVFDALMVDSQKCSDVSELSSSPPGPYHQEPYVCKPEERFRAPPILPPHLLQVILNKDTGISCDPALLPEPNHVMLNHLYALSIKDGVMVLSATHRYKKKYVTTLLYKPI
# T1 sequence (P54619 whole entry): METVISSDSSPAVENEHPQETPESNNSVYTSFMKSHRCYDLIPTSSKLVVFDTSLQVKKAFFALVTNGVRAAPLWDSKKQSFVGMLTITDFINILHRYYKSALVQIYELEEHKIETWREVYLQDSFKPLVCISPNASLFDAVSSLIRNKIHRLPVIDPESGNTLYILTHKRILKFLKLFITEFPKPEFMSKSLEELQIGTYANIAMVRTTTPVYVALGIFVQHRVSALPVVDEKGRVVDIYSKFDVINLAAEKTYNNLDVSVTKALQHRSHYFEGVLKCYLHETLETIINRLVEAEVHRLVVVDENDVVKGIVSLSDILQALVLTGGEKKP
# Description: (§1) AMPKα2/β1/γ1 trimer (Life Technologies #PV4674, Lot 1261361B) (1 ng/μl) was incubated with 10 μM test material, 20 μM test material or 150 μM ADP (Sigma #A2754) +/−1 mM ATP (Sigma #A1852-1VL) in buffer (40 mM Hepes, 0.5 mM DTT, 0.2 mg/ml Gelatin (Sigma #G7041) and 0.4% DMSO), +/−PP2Ca (0.25-0.75 ng/μl) (Abcam ab51205-100; Lot GR54133-5) and 5 mM MnCl2 (total volume 20 μl). AMPKα2/β1/γ1+/−ATP was preincubated with the test material and ADP for 2 minutes at 30° C. before addition of PP2C/MnCl2 to start the dephosphorylation reaction which continued for 10-15 minutes at 30° C. Reactions were terminated by the addition of 0.17% BSA, 13 mM EDTA, 1.3×XT Sample buffer and 0.67% β-Mercaptoethanol in PBS. Samples were placed on ice, 5 minutes, heated at 100° C. for 5 minutes and chilled before run on a western gel. All steps were performed in high quality low-protein-binding eppendorf tubes. In a separate experiment 10 μM test material, 20 μM test material, 150 μM ADP alone or the combination of 10 μM test material+150 μM ADP and 20 μM test material+150 μM ADP was incubated with 1 ng/μl of AMPKα2/β1/γ1 or AMPKα1/β1/γ1 (Life Technologies #PV4672) trimer in buffer (40 mM Hepes, 0.5 mM DTT, 0.2 mg/ml gelatin and 0.4% DMSO)+/−0.25-0.5 ng/μl PP2Ca and 5 mM MnCl2 or 5 mM MgCl2. AMPK was sequentially preincubated with the test material and ADP or the combination for 2 minutes at 30° C. before sequential addition of PP2C/MnCl2 or PP2C/MgCl2 to start the dephosphorylation reaction which continued for 5-15 minutes at 30° C. The reaction was thereafter terminated and analysed as above.
# [2] = tested on: PP2C-mediated dephosphorylation of p-T172 of human recombinant AMPKα, -β, and -γ trimers; experiment: AMPK in vitro de-phosphorylation assay; format: biochemical; conditions: with 150 μM ADP
# Description: as §1
# [3] = tested on: Wi-38 human lung fibroblast cells; experiment: Determination of cellular ATP content; format: cell-based; conditions: 16 hours; dose-dependent
# Description: Wi-38 human lung fibroblast cells were stimulated with test material for 16 hours. Thereafter ATP content were determined with the ATP bioluminescence assay kit HS II (Roche Applied Science #11699709001) according to manufacturer's recommendations. The ATP data were normalised to cellular protein determined using BCA protein assay kit (Pierce #23225).
# CBA mice on HFD = experiment: In vivo glucose uptake ([18F]-FDG PET); conditions: 2 mg/g in HFD, 2 w, vs HFD
# Description: Mice were allowed to be awake and freely moving around in their cage after injection. After 180 minutes, mice were sacrificed under deep isoflurane anaesthesia and blood was removed by retrograde perfusion of PBS via the aorta. When the liver was pale, tissues were collected and scanned for a 10 minutes static uptake (nanoScan PET/CT, Mediso, Hungary). The tissues were then scanned ex vivo scanning to assess uptake in the isolated tissues. Images were reconstructed to a 0.4×0.4 mm resolution with a 3D iterative reconstruction with 4 iterations and 4 subsets (Mediso Tera-Tomo 3D), covering 98 mm axial distance, employing spike filter, delayed-window random correction, scatter and CT-based attenuation corrections. Volumes of interest were manually delineated over each tissue using imlook4d (www.dicom-port.com). Tracer uptake was quantified as standardised uptake values (SUV), using the formula: SUV=C/(l/m); with C being the measured tissue activity concentration (Bq/mL), l the injected dose (Bq), and m the body weight (g). C and l are decay corrected to the same time.
# primary mouse islets = experiment: Unfolded protein response gene expression in islets at 22 mM glucose; format: cell-based
# Description: For RNA purification calf muscle, iWAT, interscapular BAT, and left lateral liver lobe was crushed in a pestle using liquid nitrogen before turning to respective RNA kit. RNA from liver was prepared using Total RNA isolation Nucleospin II Kit (Macherey-Nagel #740955.50). RNA from adipose tissue was prepared using RNeasy Lipid Tissue Mini kit (Qiagen #74804). RNA from calf muscle tissue was prepared using RNeasy Fibrous Tissue Mini kit (Qiagen #74704). First strand cDNA synthesis was done using SuperScript III (First-Strand Synthesis SuperMix for qRT-PCR, Invitrogen #11752-250) according to the manufacturer's instructions. Total RNA was prepared from isolated islets using RNeasy Micro Kit (Qiagen #74004) and first strand cDNA synthesis was done using Superscript III (Invitrogen #18080-051) according to the manufacturer's instructions. Quantification of mRNA expression levels was performed essentially as previously described (Reference 3). Tyrosine 3-monooxygenase/tryptophan 5-monoxygenase activation protein, zeta polypeptide (YWHAS) was used to normalise expression levels except for islets where TBP was used.
smiles,measurement,setting,value
"O=C(Nc1nc(=O)n(Cc2ccc(Cl)cc2)s1)c1ccc(Cl)cc1 [test material, 4-chloro-N-[2-[(4-chlorophenyl)methyl]-3-oxo-1,2,4-thiadiazol-5-yl]benzamide]",PP2C-mediated dephosphorylation of p-T172 AMPK,[1]; absence of ATP,suppressed
same,dephosphorylation of pAMPK,[1]; presence of excess ATP (1.0 mM),protected pAMPK from dephosphorylation
same,effect together with ADP on pAMPK dephosphorylation,[2],acted in an additive manner with ADP
same,ATP/protein ratio,[3],increased
same,[18F]-FDG uptake in calf and thigh muscle,CBA mice on HFD,significant increase
same,[18F]-FDG uptake in heart,CBA mice on HFD,significant increase
same,expression of unfolded protein response genes (ER stress),primary mouse islets,largely prevented an increased expression of unfolded protein response genes
